Assay results: publication doi:10.1101/2023.03.27.534333v1 (biorxiv, 2023)

Key:
full-length METTL16 = target: T1, full-length METTL16 (Homo sapiens, UniProt Q86W50); assay: m6A antibody-based ELISA; format: biochemical
T1 sequence (Q86W50 1-562): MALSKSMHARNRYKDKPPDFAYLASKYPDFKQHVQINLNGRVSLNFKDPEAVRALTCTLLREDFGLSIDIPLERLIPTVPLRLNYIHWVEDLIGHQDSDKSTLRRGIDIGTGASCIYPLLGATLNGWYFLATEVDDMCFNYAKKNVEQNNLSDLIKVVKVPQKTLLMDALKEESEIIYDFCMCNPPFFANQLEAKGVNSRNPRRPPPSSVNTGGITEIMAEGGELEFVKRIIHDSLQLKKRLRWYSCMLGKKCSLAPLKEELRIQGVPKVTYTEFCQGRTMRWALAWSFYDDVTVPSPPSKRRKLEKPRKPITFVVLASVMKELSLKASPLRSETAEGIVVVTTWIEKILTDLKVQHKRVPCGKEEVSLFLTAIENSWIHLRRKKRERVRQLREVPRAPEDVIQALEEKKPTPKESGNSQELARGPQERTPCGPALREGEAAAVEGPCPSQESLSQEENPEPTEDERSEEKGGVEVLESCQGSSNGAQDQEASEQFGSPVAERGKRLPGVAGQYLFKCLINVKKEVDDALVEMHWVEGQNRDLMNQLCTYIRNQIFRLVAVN

[1] = target: T2, METTL16 MTD (residues 1-291) (Homo sapiens, UniProt Q86W50); assay: microscale thermophoresis, His-tag RED-tris-NTA labelled protein; format: binding
T2 sequence (Q86W50 1-291): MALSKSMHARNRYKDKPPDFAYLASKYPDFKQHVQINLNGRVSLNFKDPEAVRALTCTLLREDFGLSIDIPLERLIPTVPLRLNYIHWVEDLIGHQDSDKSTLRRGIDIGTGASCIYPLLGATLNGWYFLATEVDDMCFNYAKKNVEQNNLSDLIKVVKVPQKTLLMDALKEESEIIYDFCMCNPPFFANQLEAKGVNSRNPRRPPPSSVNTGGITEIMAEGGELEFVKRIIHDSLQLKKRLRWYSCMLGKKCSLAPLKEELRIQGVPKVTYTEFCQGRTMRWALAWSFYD

SMILES | IC50 (full-length METTL16) | Kd [1]
C/C(=N\N=C(/N)S)c1ccccc1 [compound 1, [(E)-(1-phenylethylidene)amino]thiourea] | 25.8 ± 17.2 nM | 3310 ± 610 nM
C/C(=N\NC(N)=S)c1ccc(F)cc1 [compound 2, [(E)-[1-(4-fluorophenyl)ethylidene]amino]thiourea] | 60.9 ± 2.75 nM | 2840 ± 940 nM
